The values below come from patent US20230278995A1, “1,3,4-OXADIAZOLE DERIVATIVE COMPOUNDS AS HISTONE DEACETYLASE 6 INHIBITOR, AND THE PHARMACEUTICAL COMPOSITION COMPRISING THE SAME” (CHONG KUN DANG PHARMACEUTICAL CORP., priority 2020, published 2023).

The target in assay [1] is T1, human recombinant HDAC1 (Homo sapiens, UniProt Q13547).
T1 construct: purchased Enzo Life Sciences, Inc. BML-SE456
The assay can be described thus: HDAC enzyme activity inhibition assay (HDAC Fluorimetric Drug Discovery Kit), HDAC1. The assay is classed as biochemical. To be noted: human recombinant HDAC1, Fluor de Lys-SIRT1 substrate, 30° C. 60 minutes. How it is done:
(§1) For the HDAC1 enzyme activity test, human recombinant HDAC1 (BML-SE456) was used as an enzyme source and Fluor de Lys©-SIRT1 (BNL-K1177) was used as a substrate. After dispensing 5-fold diluted compounds into a 96-well plate, 0.3 μg of enzyme and 10 μM substrate were added to each well of the plate and allowed to react at 30° C. for 60 minutes. Next, Fluor de Lys© Developer II (BML-K1176) was added and reacted for 30 minutes to complete the reaction, and then the fluorescence values (Ex 360, Em 460) were measured using a multi-plate reader (Flexstation 3, Molecular Device). The HDAC6 enzymes were tested using human recombinant HDAC6 (382180) from Calbiochem Inc., according to the same protocol as the HDAC1 enzyme activity test method. With respect to the final result values, respective IC50 values were calculated using GraphPad Prism 4.0 program (Table 2).

Assay [2] concerns the target T2, human recombinant HDAC6 (Homo sapiens, UniProt Q9UBN7).
T2 construct: purchased Calbiochem Inc. 382180
T2 sequence (Q9UBN7 1-1215): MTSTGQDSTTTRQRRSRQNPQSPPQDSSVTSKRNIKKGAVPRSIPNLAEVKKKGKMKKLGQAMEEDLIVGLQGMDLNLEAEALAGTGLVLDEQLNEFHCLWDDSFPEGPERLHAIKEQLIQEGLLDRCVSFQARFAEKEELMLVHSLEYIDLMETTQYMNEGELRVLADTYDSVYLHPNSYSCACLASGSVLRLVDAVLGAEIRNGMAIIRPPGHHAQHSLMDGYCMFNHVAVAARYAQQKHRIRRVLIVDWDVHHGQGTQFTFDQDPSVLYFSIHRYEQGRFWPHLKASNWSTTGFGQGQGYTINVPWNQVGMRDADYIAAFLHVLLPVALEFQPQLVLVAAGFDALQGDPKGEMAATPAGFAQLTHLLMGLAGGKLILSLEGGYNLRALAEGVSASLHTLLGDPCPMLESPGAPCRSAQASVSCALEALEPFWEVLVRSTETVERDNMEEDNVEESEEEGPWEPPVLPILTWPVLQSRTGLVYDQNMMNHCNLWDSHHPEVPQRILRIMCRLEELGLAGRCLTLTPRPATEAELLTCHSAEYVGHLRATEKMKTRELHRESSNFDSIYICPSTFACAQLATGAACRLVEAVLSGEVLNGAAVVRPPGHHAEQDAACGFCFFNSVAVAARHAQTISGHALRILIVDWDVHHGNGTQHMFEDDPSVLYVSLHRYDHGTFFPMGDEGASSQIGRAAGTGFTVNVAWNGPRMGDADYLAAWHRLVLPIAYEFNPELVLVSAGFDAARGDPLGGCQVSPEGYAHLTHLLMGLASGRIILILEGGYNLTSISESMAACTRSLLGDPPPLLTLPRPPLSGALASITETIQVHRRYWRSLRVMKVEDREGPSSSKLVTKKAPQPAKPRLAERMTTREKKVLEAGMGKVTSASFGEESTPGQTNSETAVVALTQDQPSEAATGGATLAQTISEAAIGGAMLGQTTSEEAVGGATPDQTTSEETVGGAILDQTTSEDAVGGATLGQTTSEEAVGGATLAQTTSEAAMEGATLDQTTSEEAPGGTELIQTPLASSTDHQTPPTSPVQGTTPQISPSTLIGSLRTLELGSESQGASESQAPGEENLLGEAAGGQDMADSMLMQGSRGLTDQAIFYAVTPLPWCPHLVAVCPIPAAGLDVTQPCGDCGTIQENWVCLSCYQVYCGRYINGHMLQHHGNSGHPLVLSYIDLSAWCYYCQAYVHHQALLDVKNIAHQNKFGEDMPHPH
The assay can be described thus: HDAC enzyme activity inhibition assay (HDAC Fluorimetric Drug Discovery Kit), HDAC6. Type of assay: biochemical. The settings on record: for HDAC6 selectivity (fold): HDAC1 vs HDAC6; for IC50: human recombinant HDAC6, same protocol as HDAC1. The method, then: as §1

T1 sequence (Q13547 whole entry): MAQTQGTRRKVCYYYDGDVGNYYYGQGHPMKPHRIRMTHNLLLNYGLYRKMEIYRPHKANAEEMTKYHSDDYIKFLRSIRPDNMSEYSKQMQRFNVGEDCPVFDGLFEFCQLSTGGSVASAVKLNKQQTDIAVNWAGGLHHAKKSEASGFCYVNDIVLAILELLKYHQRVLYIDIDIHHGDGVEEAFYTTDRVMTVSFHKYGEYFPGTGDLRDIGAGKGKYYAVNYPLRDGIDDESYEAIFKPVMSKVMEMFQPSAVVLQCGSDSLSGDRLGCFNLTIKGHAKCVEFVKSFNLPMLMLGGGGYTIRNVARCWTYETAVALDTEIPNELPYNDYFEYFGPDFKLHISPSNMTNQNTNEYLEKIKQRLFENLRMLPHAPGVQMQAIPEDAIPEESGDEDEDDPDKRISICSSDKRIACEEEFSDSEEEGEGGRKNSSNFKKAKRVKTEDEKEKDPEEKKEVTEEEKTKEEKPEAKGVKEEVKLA

The IC50 is the point on the concentration scale where inhibition reaches its midpoint. Turning to `CN(C)CCCC(=O)N1CC(F)(C(=O)N(Cc2ccc(-c3nnc(C(F)F)o3)cn2)c2ccccc2)C1` [Compound 3007, N-((5-(5-(difluoromethyl)-1,3,4-oxadiazol-2-yl)pyridin-2-yl)methyl)-1-(4-(dimethylamino)butanoyl)-3-fluoro-N-phenylazetidine-3-carboxamide], in assay [1], the IC50 was more than 50000 nM. In addition, in assay [2], the “HDAC6 selectivity (fold)” value is listed as 1,945 fold and the IC50 came to 25.7 nM.

On to `CN1CC(F)(C(=O)N(Cc2ccc(-c3nnc(C(F)F)o3)cn2)c2cccc(F)c2)C1` [Compound 3047, N-((5-(5-(difluoromethyl)-1,3,4-oxadiazol-2-yl)pyridin-2-yl)methyl)-3-fluoro-N-(3-fluorophenyl)-1-methylazetidine-3-carboxamide], for which the IC50 in assay [1] is 20800 nM; in assay [2], 85.7 nM. Moreover, in assay [2], the “HDAC6 selectivity (fold)” value came to 242 fold.

With `CC(C)N1CC(F)(C(=O)N(Cc2ccc(-c3nnc(C(F)F)o3)cn2)c2cccc(F)c2)C1` [Compound 3048, N-((5-(5-(difluoromethyl)-1,3,4-oxadiazol-2-yl)pyridin-2-yl)methyl)-3-fluoro-N-(3-fluorophenyl)-1-isopropylazetidine-3-carboxamide], in assay [1], the IC50 was found to be 18500 nM. In assay [2], the “HDAC6 selectivity (fold)” value is recorded as 237 fold and the IC50 came to 78 nM.

`O=C(N(Cc1ccc(-c2nnc(C(F)F)o2)cn1)c1cccc(F)c1)C1(F)CN(C2CCC2)C1` [Compound 3049, 1-cyclobutyl-N-((5-(5-(difluoromethyl)-1,3,4-oxadiazol-2-yl)pyridin-2-yl)methyl)-3-fluoro-N-(3-fluorophenyl)azetidine-3-carboxamide]: the IC50 in assay [1] turned out to be 21600 nM; in assay [2], 55 nM. In assay [2], the “HDAC6 selectivity (fold)” value is on record as 392 fold.

Take `O=C(N(Cc1ccc(-c2nnc(C(F)F)o2)cn1)c1cccc(F)c1)C1(F)CN(C2COC2)C1` [Compound 3050, N-((5-(5-(difluoromethyl)-1,3,4-oxadiazol-2-yl)pyridin-2-yl)meth 1)-3-fluoro-N-(3-fluorophenyl)-1-(oxetan-3-yl)azetidine-3-carboxamide]: the IC50 in assay [1] was more than 50000 nM; in assay [2] it was 73.2 nM. In addition, the “HDAC6 selectivity (fold)” value in assay [2] is reported as 683 fold.

Take `O=C(N(Cc1ccc(-c2nnc(C(F)F)o2)cn1)c1cccc(F)c1)C1(F)CN(C2CCOC2)C1` (stereo not drawn) [Compound 3052, N-((5-(5-(difluoromethyl)-1,3,4-oxadiazol-2-yl)pyridin-2-yl)methyl)-3-fluoro-N-(3-fluorophenyl)-1-(tetrahydrofuran-3-yl)azetidine-3-carboxamide]: in assay [1], the IC50 was more than 50000 nM. Also, in assay [2], the “HDAC6 selectivity (fold)” value amounted to 854 fold and the IC50 worked out at 58.5 nM.

In the case of `O=C(N(Cc1ccc(-c2nnc(C(F)F)o2)cn1)c1cccc(F)c1)C1(F)CN(C2CCCCC2)C1` [Compound 3053, 1-cyclohexyl-N-((5-(5-(difluoromethyl)-1,3,4-oxadiazol-2-yl)pyridin-2-yl)methyl)-3-fluoro-N-(3-fluorophenyl)azetidine-3-carboxamide], the half-maximal inhibitory concentration (IC50) in assay [1] was more than 50000 nM; in assay [2], 74.8 nM. In addition, the “HDAC6 selectivity (fold)” value in assay [2] was determined as 668 fold.

As for `CCN1CC(F)(C(=O)N(Cc2ccc(-c3nnc(C(F)F)o3)cn2)c2cccc(F)c2)C1` [Compound 3090, N-((5-(5-(difluoromethyl)-1,3,4-oxadiazol-2-yl)pyridin-2-yl)methyl)-1-ethyl-3-fluoro-N-(3-fluorophenyl)azetidine-3-carboxamide], the IC50 in assay [1] is more than 50000 nM. For the same molecule, in assay [2], the “HDAC6 selectivity (fold)” value is given as 2,212 fold and the IC50 amounted to 22.6 nM.

As for `CCCN1CC(F)(C(=O)N(Cc2ccc(-c3nnc(C(F)F)o3)cn2)c2cccc(F)c2)C1` [Compound 3091, N-((5-(5-(difluoromethyl)-1,3,4-oxadiazol-2-yl)pyridin-2-yl)methyl)-3-fluoro-N-(3-fluorophenyl)-1-propylazetidine-3-carboxamide], the half-inhibitory concentration (IC50) in assay [1] was more than 50000 nM. Further, in assay [2], the “HDAC6 selectivity (fold)” value is reported as 1,436 fold and the IC50 came to 34.8 nM.

Take `CC(C)CN1CC(F)(C(=O)N(Cc2ccc(-c3nnc(C(F)F)o3)cn2)c2cccc(F)c2)C1` [Compound 3093, N-((5-(5-(difluoromethyl)-1,3,4-oxadiazol-2-yl)pyridin-2-yl)methyl)-3-fluoro-N-(3-fluorophenyl)-1-isobutylazetidine-3-carboxamide]: the figures for the IC50 in assay [1] and in assay [2] were more than 50000 nM and 32.4 nM, respectively. Moreover, the “HDAC6 selectivity (fold)” value in assay [2] is given as 1,543 fold.

Consider `CC(CO)N1CC(F)(C(=O)N(Cc2ccc(-c3nnc(C(F)F)o3)cn2)c2cccc(F)c2)C1` (stereo not drawn) [Compound 3094, N-((5-(5-(difluoromethyl)-1,3,4-oxadiazol-2-yl)pyridin-2-yl)methyl)-3-fluoro-N-(3-fluorophenyl)-1-(1-hydroxypropan-2-yl)azetidine-3-carboxamide], for which the IC50 in assay [1] was more than 50000 nM; in assay [2] it was 26.3 nM. For the same molecule, in assay [2], the “HDAC6 selectivity (fold)” value was 1,901 fold.

`O=C(N(Cc1ccc(-c2nnc(C(F)F)o2)cn1)c1cccc(F)c1)C1(F)CN(C2CCC(F)(F)CC2)C1` [Compound 3096, 1-(4,4-difluorocyclohexyl)-N-((5-(5-(difluoromethyl)-1,3,4-oxadiazol-2-yl)pyridin-2-yl)methyl)-3-fluoro-N-(3-fluorophenyl)azetidine-3-carboxamide]: the IC50 in assay [1] was more than 50000 nM. Further, in assay [2], the “HDAC6 selectivity (fold)” value is 1,385 fold and the IC50 amounted to 36.1 nM.

With `CN(C)CCC(=O)N1CC(F)(C(=O)N(Cc2ccc(-c3nnc(C(F)F)o3)cn2)c2cccc(F)c2)C1` [Compound 3097, N-((5-(5-(difluoromethyl)-1,3,4-oxadiazol-2-yl)pyridin-2-yl)methyl)-1-(3-(dimethylamino)propanoyl)-3-fluoro-N-(3-fluorophenyl)azetidine-3-carboxamide], the results for the half-maximal inhibitory concentration (IC50) in assay [1] and in assay [2] were more than 50000 nM and 31 nM, respectively. In addition, the “HDAC6 selectivity (fold)” value in assay [2] was 1,612 fold.

As to `CN(C)CCCC(=O)N1CC(F)(C(=O)N(Cc2ccc(-c3nnc(C(F)F)o3)cn2)c2cccc(F)c2)C1` [Compound 3098, N-((5-(5-(difluoromethyl)-1,3,4-oxadiazol-2-yl)pyridin-2-yl)methyl)-1-(4-(dimethylamino)butanoyl)-3-fluoro-N-(3-fluorophenyl)azetidine-3-carboxamide], the IC50 is more than 50000 nM in assay [1] and 25.1 nM in assay [2]. Moreover, in assay [2], the “HDAC6 selectivity (fold)” value is on record as 1,992 fold.

As for `CN1CC(N2CC(F)(C(=O)N(Cc3ccc(-c4nnc(C(F)F)o4)cn3)c3ccccc3)C2)C1` [Compound 3105, N-((5-(5-(difluoromethyl)-1,3,4-oxadiazol-2-yl)pyridin-2-yl)methyl)-3-fluoro-1′-methyl-N-phenyl-[1,3′-biazetidine]-3-carboxamide], the IC50 in assay [1] was more than 50000 nM. In addition, in assay [2], the “HDAC6 selectivity (fold)” value came to 771 fold and the IC50 is 64.8 nM.

In the case of `CCN1CC(N2CC(F)(C(=O)N(Cc3ccc(-c4nnc(C(F)F)o4)cn3)c3ccccc3)C2)C1` [Compound 3106, N-((5-(5-(difluoromethyl)-1,3,4-oxadiazol-2-yl)pyridin-2-yl)methyl)-1′-ethyl-3-fluoro-N-phenyl-[1,3′-biazetidine]-3-carboxamide], the IC50 in assay [1] is more than 50000 nM; in assay [2], 39.6 nM. Also, the “HDAC6 selectivity (fold)” value in assay [2] was 1,262 fold.
